Assay: in vitro release study of TKI from ocular implants (polymer composites)
Format: physicochemical
Settings: for time over which the ocular composite continues to release the TKI / release of the TKI from the ocular implant (percent of TKI): phosphate buffered saline release medium pH 7.4, 37° C.; for release of the TKI from the ocular implant (percent of TKI): within 30 days; for burst release at day 1 / period of release at the stated rate: formulation of 50% polymer (RG755 or RG504) and 50% TKI
Procedure: The in vitro release study was carried out in an incubator at 37° C. shaking at 120 rpm.
The release medium was 0.02% Polysorbate 80 containing 10 mM phosphate buffered saline, pH7.4. The medium and implants were placed in 20 mL scintillation vials. At given time points, the medium containing released drug was collected and replaced with fresh medium. The concentration of the compound in the release medium was analyzed using HPLC.

time over which the ocular composite continues to release the TKI | release of the TKI from the ocular implant (percent of TKI) | burst release at day 1 | period of release at the stated rate | SMILES
> 6 months | 2-8% | – | – | Cc1cc(C(=O)Nc2cccc(C(=O)c3ccc4c(c3)NC(=O)C4=CNc3ccc(CCCC(=O)O)cc3)c2)n(C)n1 [Example 324, 4-{4-[(6-{3-[(2,5-Dimethyl-2H-pyrazole-3-carbonyl)-amino]-benzoyl}-2-oxo-1,2-dihydro-indol-3-ylidenemethyl)-amino]-phenyl}-butyric acid]
> 6 months | 29-35% | minimal burst release | approximately 50 days | Cc1ccoc1C(=O)Nc1cccc(C(=O)c2ccc3c(c2)NC(=O)C3=CNc2ccc(CCC(=O)[O-])cc2)c1.[Na+] [Example 378, 3-{4-[(6-{3-[(3-Methyl-furan-2-carbonyl)-amino]-benzoyl}-2-oxo-1,2-dihydro-indol-3-ylidenemethyl)-amino]-phenyl}-propionic acid, sodium salt]
> 6 months | 2-12% | minimal burst release | approximately 50 days | Cc1cc(C(=O)Nc2cccc(C(=O)c3ccc4c(c3)NC(=O)C4=CNc3ccc(CN4CCCC4)cc3)c2)n(C)n1 [Example 206, 2,5-Dimethyl-2H-pyrazole-3-carboxylic acid (3-{2-oxo-3-[(4-pyrrolidin-1-ylmethyl-phenylamino)-methylene]-2,3-dihydro-1H-indole-6-carbonyl}-phenyl)-amide]
